Columns and labels:
[1] = background statement; cited from earlier work
[2] = test system: strain of T. gondii engineered to express the bacterial GlpT; settings: ref [22]; cited from earlier work
T. gondii = T. gondii growth / proliferation; assay type: cell-based, Toxoplasma gondii; settings: previous method of ref [22]
[3] = test system: bacteria including E. coli; settings: ref [11]; cited from earlier work
[4] = target: T1, recombinant T. gondii DXR (TgDXR) (Toxoplasma gondii, UniProt S8ESX0); experiment: TgDXR enzyme inhibition assay; assay type: biochemical; settings: average of acetyl analogs 8 and 9 vs 6 and 7
T1 sequence (S8ESX0 187-632): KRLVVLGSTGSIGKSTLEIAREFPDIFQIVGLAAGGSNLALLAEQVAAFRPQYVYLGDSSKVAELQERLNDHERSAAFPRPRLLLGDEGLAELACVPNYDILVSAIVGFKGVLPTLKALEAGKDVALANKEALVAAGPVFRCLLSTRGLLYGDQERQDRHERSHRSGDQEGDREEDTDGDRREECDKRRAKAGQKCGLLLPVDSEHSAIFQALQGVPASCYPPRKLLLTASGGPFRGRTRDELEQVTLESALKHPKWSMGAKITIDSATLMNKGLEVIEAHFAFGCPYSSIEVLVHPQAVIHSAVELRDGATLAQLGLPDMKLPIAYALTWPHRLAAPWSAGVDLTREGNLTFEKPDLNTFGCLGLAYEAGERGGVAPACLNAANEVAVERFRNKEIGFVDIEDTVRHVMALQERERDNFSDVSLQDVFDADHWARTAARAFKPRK

malaria parasites = settings: ref [16]; cited from earlier work
[5] = test system: Mycobacterium tuberculosis DXR; settings: read-out: Km of Mycobacterium tuberculosis DXR; substrate DXP; ref [23]; cited from earlier work
PfDXR = settings: read-out: Km of PfDXR; substrate DXP; ref [15]; cited from earlier work
EcDXR = settings: read-out: Km of EcDXR; substrate DXP; ref [13]; cited from earlier work
[6] = substrate: CC(=O)[C@@H](O)[C@H](O)COP(=O)(O)O; experiment: TgDXR enzyme inhibition assay; assay type: biochemical, Toxoplasma gondii; settings: other: DXP 10 to 450 μM, [Mg2+] = 4 mM, Michaelis-Menten fit; 30.0 °C

## O=CN(O)CCCP(=O)(O)O [Compound 1, Fosmidomycin]
[1]
  half-life in plasma: very short
[2]
  killing of GlpT-expressing T. gondii: can effectively kill

## O=c1ccc(-c2ccccc2)cn1O [Compound 5]
T. gondii
  block of proliferation / activity against growth of T. gondii: does not block proliferation
[3]
  antibacterial activity: broad antibacterial activity

## CC(=O)N(O)CCC(c1cccnc1)P(=O)(O)O (stereo not drawn) [Compound 8]
[4]
  fold less activity against TgDXR than formyl analogs 6 and 7: ~ 11 fold

## CC(=O)N(O)CCC(c1ccncc1)P(=O)(O)O (stereo not drawn) [Compound 9]
[4]
  fold less activity against TgDXR than formyl analogs 6 and 7: ~ 11 fold

## O=CN(O)CCC(c1ccc(Cl)c(Cl)c1)P(=O)(O)O (stereo not drawn) [Compound 10]
Malaria parasites
  antimalarial activities: potent

## CC(=O)N(O)CCC(c1ccc(Cl)c(Cl)c1)P(=O)(O)O (stereo not drawn) [Compound 11]
Malaria parasites
  antimalarial activities: potent

## CC(=O)[C@@H](O)[C@H](O)COP(=O)(O)O [DXP, 1-deoxy-D-xylulose-5-phosphate]
[5]
  Km: 47 µM
PfDXR
  Km: 106 µM
EcDXR
  Km: 99 µM

B1: recombinant T. gondii DXR (TgDXR) (Toxoplasma gondii ME49) (protein)
chain: T1 sequence (S8ESX0 187-632)
[6]
  Km: 25.5 ± 3.7 µM

Source: article PMC3602143 (Bioorganic & medicinal chemistry letters, 2013)
